Experimental data published in PubChem BioAssay AID2060487 (Molecular Pharmacology Branch, DTP, NCI, 2025).

Test system: 997537-175-T-J1-PDC complex spheroid viability
Assay: Anticancer human tumor 997537-175-T-J1-PDC patient-derived colon adenocarcinoma cell line growth inhibition [GQUAD]
Settings: for IC50: curve of first compound; for viability, T/C: stronger effect = lower value; active = viability on the fitted dose curve at most 10% of control; inactive = the rest
Method in brief: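 Viability of tumor cells grown as complex spheroids with endothelial and stromal cells, exposed to drug combinations. Top concentration at or near clinical Cmax (else 10 microM), diluted in half-log increments.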

[1] = second compound 0.0316 µM, first compound 0.0316 µM
[2] = second compound 0.0316 µM, first compound 0.1 µM
[3] = second compound 0.0316 µM, first compound 0.316 µM
[4] = second compound 0.0316 µM, first compound 1 µM
[5] = second compound 0.0316 µM, first compound 3.16 µM
[6] = second compound 0.0316 µM, first compound 10 µM
[7] = second compound 0.1 µM, first compound 0.0316 µM
[8] = second compound 0.1 µM, first compound 0.1 µM
[9] = second compound 0.1 µM, first compound 0.316 µM
[10] = second compound 0.1 µM, first compound 1 µM
[11] = second compound 0.1 µM, first compound 3.16 µM
[12] = second compound 0.1 µM, first compound 10 µM
[13] = second compound 0.316 µM, first compound 0.0316 µM
[14] = second compound 0.316 µM, first compound 0.1 µM
[15] = second compound 0.316 µM, first compound 0.316 µM
[16] = second compound 0.316 µM, first compound 1 µM
[17] = second compound 0.316 µM, first compound 3.16 µM
[18] = second compound 0.316 µM, first compound 10 µM
[19] = second compound 1 µM, first compound 0.0316 µM
[20] = second compound 1 µM, first compound 0.1 µM
[21] = second compound 1 µM, first compound 0.316 µM
[22] = second compound 1 µM, first compound 1 µM
[23] = second compound 1 µM, first compound 3.16 µM
[24] = second compound 1 µM, first compound 10 µM
[25] = second compound 3.16 µM, first compound 0.0316 µM
[26] = second compound 3.16 µM, first compound 0.1 µM
[27] = second compound 3.16 µM, first compound 0.316 µM
[28] = second compound 3.16 µM, first compound 1 µM
[29] = second compound 3.16 µM, first compound 3.16 µM
[30] = second compound 3.16 µM, first compound 10 µM
[31] = second compound 10 µM, first compound 0.0316 µM
[32] = second compound 10 µM, first compound 0.1 µM
[33] = second compound 10 µM, first compound 0.316 µM
[34] = second compound 10 µM, first compound 1 µM
[35] = second compound 10 µM, first compound 3.16 µM
[36] = second compound 10 µM, first compound 10 µM
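Also: spheroids exposed to the agents for 7 days.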
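For viability, T/C in this document: 100% = DMSO vehicle control viability.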

Nc1ccn(C2OC(CO)C(O)C2(F)F)c(=O)n1 (centres undefined) + Cc1cnc(CNC(=O)c2c(=O)c3ccc(N4CCCN(C)CC4)nc3n3c2sc2ccccc23)cn1
> 10 µM: IC50 (second compound 0.0316 µM) | IC50 (second compound 0.1 µM) | IC50 (second compound 0.316 µM) | IC50 (second compound 1 µM) | IC50 (second compound 3.16 µM) | IC50 (second compound 10 µM)
inactive: viability, T/C [1] 90.3% | viability, T/C [2] 99.5% | viability, T/C [3] 87.3% | viability, T/C [4] 66.6% | viability, T/C [5] 66.5% | viability, T/C [6] 56.4% | viability, T/C [7] 99.4% | viability, T/C [8] 84.5% | viability, T/C [9] 94.7% | viability, T/C [10] 56.4% | viability, T/C [11] 89.4% | viability, T/C [12] 83.8% | viability, T/C [13] 93.1% | viability, T/C [14] 108% | viability, T/C [15] 69.4% | viability, T/C [16] 76.6% | viability, T/C [17] 94.6% | viability, T/C [18] 92.9% | viability, T/C [19] 89.8% | viability, T/C [20] 103% | viability, T/C [21] 102% | viability, T/C [22] 68.3% | viability, T/C [23] 104% | viability, T/C [24] 77.6% | viability, T/C [25] 68.8% | viability, T/C [26] 96.6% | viability, T/C [27] 106% | viability, T/C [28] 101% | viability, T/C [29] 85.6% | viability, T/C [30] 89.3% | viability, T/C [31] 103% | viability, T/C [32] 85.9% | viability, T/C [33] 113% | viability, T/C [34] 72.9% | viability, T/C [35] 91% | viability, T/C [36] 73.7%

O=c1[nH]cc(F)c(=O)[nH]1 + Cc1cnc(CNC(=O)c2c(=O)c3ccc(N4CCCN(C)CC4)nc3n3c2sc2ccccc23)cn1
> 10 µM: IC50 (second compound 0.0316 µM) | IC50 (second compound 0.1 µM) | IC50 (second compound 0.316 µM) | IC50 (second compound 1 µM) | IC50 (second compound 3.16 µM) | IC50 (second compound 10 µM)
inactive: viability, T/C [1] 96.2% | viability, T/C [2] 87.6% | viability, T/C [3] 85.1% | viability, T/C [4] 92.8% | viability, T/C [5] 89.6% | viability, T/C [6] 76.2% | viability, T/C [7] 75.6% | viability, T/C [8] 82.8% | viability, T/C [9] 92.8% | viability, T/C [10] 82.8% | viability, T/C [11] 102% | viability, T/C [12] 83% | viability, T/C [13] 75.9% | viability, T/C [14] 74.3% | viability, T/C [15] 84% | viability, T/C [16] 105% | viability, T/C [17] 110% | viability, T/C [18] 111% | viability, T/C [19] 88.1% | viability, T/C [20] 70.1% | viability, T/C [21] 84.9% | viability, T/C [22] 109% | viability, T/C [23] 67.2% | viability, T/C [24] 82.6% | viability, T/C [25] 78.4% | viability, T/C [26] 96.1% | viability, T/C [27] 87.8% | viability, T/C [28] 90.1% | viability, T/C [29] 82.7% | viability, T/C [30] 92.7% | viability, T/C [31] 73.7% | viability, T/C [32] 95.3% | viability, T/C [33] 98.3% | viability, T/C [34] 75.2% | viability, T/C [35] 107% | viability, T/C [36] 90.6%
